The record followed here is patent US9115061B2, “Naphthalene-based inhibitors of anti-apoptotic proteins” (BURNHAM INSTITUTE FOR MEDICAL RESEARCH, priority 2007, dated 2015).

The target of one experiment is BCL-XL (Homo sapiens (Human), UniProt Q07817). Put plainly: 1D 1H-NMR binding assay. Also: key: +++: Very Active; ++: Active; +: Mild; −: Weak. As to conditions: 4-point-rating scale; compounds 200 μM, BCL-XL 25 μM. As to the method: By observing the aliphatic region of the spectra, binding could be readily detected due to chemical shift changes in active site methyl groups of Ile, Leu, Thr, Val or Ala (region between −0.8 and 0.3 ppm). All experiments were performed with a 600 MHz spectrometer Bruker Avance 600 equipped with four rf channels and z-axis pulse-field gradients.

The target of a further experiment is GST-BCL-XL ΔTM protein (Homo sapiens (Human), UniProt Q07817). Put plainly: Competitive fluorescence polarization assay (FITC-Bak BH3 peptide). Type of experiment: binding. As to conditions: read-out: FPA IC50 (BCL-XL). As to the method: For competitive binding assays, 100 nM GST-BCL-XL ΔTM protein was preincubated with the tested compound at varying concentrations in 47.5 μL PBS (pH=7.4) in 96-well black plates at room temperature for 10 min, then 2.5 μL of 100 nM FITC-labeled Bak BH3 peptide was added to produce a final volume of 50 μL. The wild-type and mutant Bak BH3 peptides were included in each assay plate as positive and negative controls, respectively.
IC50 was determined by fitting the experimental data to a sigmoidal dose-response nonlinear regression model (SigmaPlot 10.0.1, Systat Software, Inc., San Jose, Calif., USA). Data reported are mean of three independent experiments ±standard error (SE). […] Fluorescence polarization was measured after 10 min.
A general note: Polarisation of emitted light reports the rotation of a fluorescent probe.

A further experiment relates to MCF7 cells. Nature of the experiment: XTT dye reduction assay. It counts as cell-based, human. Conditions: three days, read-out: IC50, cell viability MCF7. The protocol: (§1) The effects of the compounds on viability of tumor cells in culture were monitored by using XTT assays with MCF7 and ZR75-1 cell lines. MCF7 cells were grown in DMEM containing 10% fetal bovine serum, penicillin/streptomycin, supplemented with 10^−10 M insulin, 1 mM sodium pyruvate and glutamine. ZR75-1 cells were grown in RPMI containing 10% fetal bovine serum, penicillin/streptomycin, supplemented with HEPES buffer, 1 mM sodium pyruvate and glutamine. Cells were regularly tested for mycoplasma contamination. Cells were seeded triplicates at an initial cell density of 1,000 cells per well. Blank wells received no cells.
(§2) Relative numbers of viable cells was determined by XTT assay. Briefly, in a 96-well plate, we added 50 μl of a mixture of 1 mg/ml of XTT (2,3-bis(2-methoxy-4-nitro-5-sulfophenyl)-5-[(phenylamino)carbonyl]-2H-tetrazolium hydroxide) (Polysciences, Washington, Pa.) containing 0.025 mM PMS (phenazine methosulfate) to each well. The 96-well plates were reincubated for an additional 4 hours to allow for XTT formazan production. Then, the contents of each plate were mixed and optical densities were determined at a wavelength of 450 nm (OD450). Net OD450 was determined after subtracting OD450 of blank wells. Low-passage HeLa cells (between passage number 10 and 20) were transfected with pcDNA3-BCL-XL or control pcDNA3 plasmids using Lipofectamine Plus reagent (Invitrogen) and selected in medium containing 800 μg/ml of G418. Immunoblot analysis of BCL-XL was accomplished as previously described.

The test system of another experiment is ZR75-1 cells. Nature of the experiment: XTT dye reduction assay. It counts as cell-based, human. Conditions: three days, read-out: IC50, cell viability ZR75-1. As to the method: as §1, §2
A general note: Tetrazolium assays rely on reduction of a dye to a coloured formazan, in cell work by metabolically active cells.

SMILES strings stand for the structures.

GST-BCL-XL ΔTM protein, sequence (Q07817 1-209): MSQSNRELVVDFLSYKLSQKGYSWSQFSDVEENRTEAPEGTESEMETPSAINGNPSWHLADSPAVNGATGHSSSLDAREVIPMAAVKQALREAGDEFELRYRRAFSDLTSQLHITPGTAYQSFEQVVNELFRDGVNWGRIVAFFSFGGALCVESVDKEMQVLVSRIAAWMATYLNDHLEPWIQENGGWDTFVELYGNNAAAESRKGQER
BCL-XL, sequence (Q07817 whole entry): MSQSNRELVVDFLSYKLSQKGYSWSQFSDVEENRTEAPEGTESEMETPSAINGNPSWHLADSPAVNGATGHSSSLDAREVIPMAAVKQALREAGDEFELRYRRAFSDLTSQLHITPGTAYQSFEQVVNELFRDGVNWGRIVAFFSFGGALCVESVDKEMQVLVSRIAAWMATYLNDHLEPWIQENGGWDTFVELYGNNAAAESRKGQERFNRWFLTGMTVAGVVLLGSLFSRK

Regarding `Cc1cc2c(C(C)C)c(O)c(O)c(C=O)c2c(O)c1-c1c(C)cc2c(C(C)C)c(O)c(O)c(C=O)c2c1O` [Gossypol, gossypol], the “1D 1H-NMR Binding Assay (BCL-XL)” value on BCL-XL is given as “++”. Further, the IC50 (usually the concentration at which inhibition is half-maximal) on GST-BCL-XL ΔTM protein came to 2.72 µM; with MCF7 cells, 13.2 µM; with ZR75-1 cells it was 8.4 µM.
